{"source": "patent US20230391772A1", "about": "“METHODS AND COMPOSITIONS FOR TARGETED PROTEIN DEGRADATION” (Ranok Therapeutics (Hangzhou) Co. Ltd., priority 2020, published 2023)", "key": {"[1]": {"molecular_target": "T1, HSP90a protein (Homo sapiens, UniProt P07900)", "T1 construct": "purchased BPS Bioscience 50298", "experiment": "HSP90α-binding fluorescent polarization (FP) assay, BODIPY-labeled RNK04010 probe", "details": "FP competition with RNK04010 (BODIPY-labeled), 5 nM, 300 min at 25° C.", "protocol": "HSP90α-Binding Fluorescent Polarization (FP) Assay\nBinding of test compounds to HSP90a protein was measured by fluorescent polarization (FP) using the HSP90a (N-terminal) Assay Kit (BPS Bioscience, #50298), following the manufacturer's instructions, except as noted. Fluorescently labeled HSP90-binding compounds, either the provided FITC-geldanamycin (5 nM final concentration) or RNK04010, a triazolone-based HSP90 binding small molecule labeled with BODIPY through a piperizine-phenyl linker (5 nM final concentration) were employed. A 2.5-fold serial dilution of each test compound ranging from 20 μM to 5.2 nM was assayed for binding to HSP90a. After the final step of adding HSP90a protein to each assay well, plates were mixed by brief shaking, incubated at 25° C. for 120 min for FITC-geldanamycin or 300 min for RNK04010, and fluorescence was measured using a PerkinElmer EnVision Plate Reader."}, "[2]": {"tested_on": "MIA PaCa-2 human pancreatic carcinoma", "experiment": "MIA PaCa-2 CCK-8 proliferation assay", "type": "cell-based", "details": "Homo sapiens, MIA PaCa-2, 72 h, MIA PaCa-2 cells", "protocol": "The following cancer cell lines were employed: BT-474 human breast carcinoma (ATCC, #HTB-20); MIA PaCa-2 human pancreatic carcinoma [2 copies KRAS(G12C)](ATCC, #CRL-1420); NCI-H23 human non-small cell lung cancer [1 copy KRAS(G12C)](ATCC, #CRL-5800); NCI-H358 human non-small cell lung cancer [1 copy KRAS(G12C)](ATCC, #CRL-5807); LU65A human lung carcinoma (Pharmaron, Beijing, China). Cell lines were cultured essentially according to ATCC and Pharmaron recommendations.\nCancer Cell Line Proliferation (CCK-8) Assays\n3-fold serial dilutions of each test compound were prepared ranging from 20 μM to 1.02 nM.\n% Inhibition=100−(D−B)/(S−B)*100%. • S: Absorbance of cells treated with DMSO • D: Absorbance of compound-treated cells • B: Absorbance of medium with DMSO without cells"}}, "data": [{"smiles": "C=CC(=O)N1CCN(c2nc(NCCC(=O)NCc3ccc(CN4CCC(Cc5ccc(-n6c(C(=O)NC(C)C)nnc6-c6cc(C(C)C)c(O)cc6O)cc5)CC4)cc3)nc3c2CCN(c2cc(O)cc4ccccc24)C3)CC1", "note": "[Compound 126, 4-(4-((1-(4-((3-((4-(4-acryloylpiperazin-1-yl)-7-(3-hydroxynaphthalen-1-yl)-5,6,7,8-tetrahydropyrido[3,4-d]pyrimidin-2-yl)amino)propanamido)methyl)benzyl)piperidin-4-yl)methyl)phenyl)-5-(2,4-dihydroxy-5-isopropylphenyl)-N-isopropyl-4H-1,2,4-triazole-3-carboxamide, trifluoroacetic acid]", "values": [{"measurement": "IC50", "setting": "[1]", "value": "100 to 1000", "unit": "nM"}]}, {"smiles": "C=CC(=O)N1CCN(c2nc(OC[C@@H]3CCN(C(=O)c4ccc5c(c4)CN(C(=O)c4cc(C(C)C)c(O)cc4O)C5)C3)nc3c2CCN(c2cccc4cccc(Cl)c24)C3)C[C@@H]1CC#N", "note": "[Compound 175, 2-((S)-1-acryloyl-4-(7-(8-chloronaphthalen-1-yl)-2-(((R)-1-(2-(2,4-dihydroxy-5-isopropylbenzoyl)isoindoline-5-carbonyl)pyrrolidin-3-yl)methoxy)-5,6,7,8-tetrahydropyrido[3,4-d]pyrimidin-4-yl)piperazin-2-yl)acetonitrile]", "values": [{"measurement": "IC50", "setting": "[1]", "value": "> 1000", "unit": "nM"}]}, {"smiles": "C=CC(=O)N1CCN(c2nc(OC[C@@H]3CCN(C(=O)c4ccc5c(c4)CN(C(=O)c4cc(CC)c(O)cc4O)C5)C3)nc3c2CCN(c2cccc4cccc(Cl)c24)C3)C[C@@H]1CC#N", "note": "[Compound 176, 2-((S)-1-acryloyl-4-(7-(8-chloronaphthalen-1-yl)-2-(((R)-1-(2-(5-ethyl-2,4-dihydroxybenzoyl)isoindoline-5-carbonyl)pyrrolidin-3-yl)methoxy)-5,6,7,8-tetrahydropyrido[3,4-d]pyrimidin-4-yl)piperazin-2-yl)acetonitrile]", "values": [{"measurement": "IC50", "setting": "[1]", "value": "> 1000", "unit": "nM"}]}, {"smiles": "CC(C)c1cc(-c2nnc(O)n2-c2ccc(CN3CCC(C(=O)N4CC[C@@H](COc5nc6c(c(N7CCN(C(=O)C(F)(F)F)[C@@H](CC#N)C7)n5)CCN(c5cccc7cccc(Cl)c57)C6)C4)CC3)cc2)c(O)cc1O", "note": "[Compound 177, 2-((S)-4-(7-(8-chloronaphthalen-1-yl)-2-(((R)-1-(1-(4-(3-(2,4-dihydroxy-5-isopropylphenyl)-5-hydroxy-4H-1,2,4-triazol-4-yl)benzyl)piperidine-4-carbonyl)pyrrolidin-3-yl)methoxy)-5,6,7,8-tetrahydropyrido[3,4-d]pyrimidin-4-yl)-1-(2,2,2-trifluoroacetyl)piperazin-2-yl)acetonitrile]", "values": [{"measurement": "IC50", "setting": "[1]", "value": "100 to 1000", "unit": "nM"}]}, {"smiles": "C=CC(=O)N1CCN(c2nc(OC[C@@H]3CCN(C(=O)COc4ccc(Nc5cc(-n6nc(C(F)(F)F)c7c6CC(C)(C)CC7=O)ccc5C(N)=O)cc4)C3)nc3c2CCN(c2cccc4cccc(Cl)c24)C3)C[C@@H]1CC#N", "note": "[Compound 178, 2-((4-(2-((R)-3-(((4-((S)-4-acryloyl-3-(cyanomethyl)piperazin-1-yl)-7-(8-chloronaphthalen-1-yl)-5,6,7,8-tetrahydropyrido[3,4-d]pyrimidin-2-yl)oxy)methyl)pyrrolidin-1-yl)-2-oxoethoxy)phenyl)amino)-4-(6,6-dimethyl-4-oxo-3-(trifluoromethyl)-4,5,6,7-tetrahydro-1H-indazol-1-yl)benzamide]", "values": [{"measurement": "EC50", "setting": "[2]", "value": "> 1000", "unit": "nM"}, {"measurement": "IC50", "setting": "[1]", "value": "> 1000", "unit": "nM"}]}, {"smiles": "C=CC(=O)N1CCN(c2nc(OCC3CCN(C(=O)C4CCN(Cc5ccc(-n6c(O)nnc6-c6cc(C(C)C)c(O)cc6O)cc5)CC4)CC3)nc3c2CCN(c2cccc4cccc(Cl)c24)C3)C[C@@H]1CC#N", "note": "[Compound 179, (S)-2-(1-acryloyl-4-(7-(8-chloronaphthalen-1-yl)-2-((1-(1-(4-(3-(2,4-dihydroxy-5-isopropylphenyl)-5-hydroxy-4H-1,2,4-triazol-4-yl)benzyl)piperidine-4-carbonyl)piperidin-4-yl)methoxy)-5,6,7,8-tetrahydropyrido[3,4-d]pyrimidin-4-yl)piperazin-2-yl)acetonitrile]", "values": [{"measurement": "EC50", "setting": "[2]", "value": "100 to 1000", "unit": "nM"}, {"measurement": "IC50", "setting": "[1]", "value": "< 100", "unit": "nM"}]}, {"smiles": "C=CC(=O)N1CCN(c2nc(OC[C@@H]3CCN(C(=O)C4CCN(Cc5ccc(-n6c(O)nnc6-c6cc(C)c(O)cc6O)cc5)CC4)C3)nc3c2CCN(c2cccc4cccc(Cl)c24)C3)C[C@@H]1CC#N", "note": "[Compound 180, 2-((S)-1-acryloyl-4-(7-(8-chloronaphthalen-1-yl)-2-(((R)-1-(1-(4-(3-(2,4-dihydroxy-5-methylphenyl)-5-hydroxy-4H-1,2,4-triazol-4-yl)benzyl)piperidine-4-carbonyl)pyrrolidin-3-yl)methoxy)-5,6,7,8-tetrahydropyrido[3,4-d]pyrimidin-4-yl)piperazin-2-yl)acetonitrile]", "values": [{"measurement": "EC50", "setting": "[2]", "value": "> 1000", "unit": "nM"}, {"measurement": "IC50", "setting": "[1]", "value": "100 to 1000", "unit": "nM"}]}, {"smiles": "C=CC(=O)N1CCN(c2nc(OC[C@@H]3CCN(C(=O)c4ccc(Nc5cc(-n6nc(C(F)(F)F)c7c6CC(C)(C)CC7=O)ccc5C(N)=O)cc4)C3)nc3c2CCN(c2cccc4cccc(Cl)c24)C3)C[C@@H]1CC#N", "note": "[Compound 181, 2-((4-((R)-3-(((4-((S)-4-acryloyl-3-(cyanomethyl)piperazin-1-yl)-7-(8-chloronaphthalen-1-yl)-5,6,7,8-tetrahydropyrido[3,4-d]pyrimidin-2-yl)oxy)methyl)pyrrolidine-1-carbonyl)phenyl)amino)-4-(6,6-dimethyl-4-oxo-3-(trifluoromethyl)-4,5,6,7-tetrahydro-1H-indazol-1-yl)benzamide]", "values": [{"measurement": "EC50", "setting": "[2]", "value": "> 1000", "unit": "nM"}, {"measurement": "IC50", "setting": "[1]", "value": "> 1000", "unit": "nM"}]}, {"smiles": "C=CC(=O)N1CCN(c2nc(OC[C@@H]3CCN(CCCOCCC(=O)NCc4ccc(-n5c(O)nnc5-c5cc(C(C)C)c(O)cc5O)cc4)C3)nc3c2CCN(c2cccc4cccc(Cl)c24)C3)C[C@@H]1CC#N", "note": "[Compound 182, 3-(3-((R)-3-(((4-((S)-4-acryloyl-3-(cyanomethyl)piperazin-1-yl)-7-(8-chloronaphthalen-1-yl)-5,6,7,8-tetrahydropyrido[3,4-d]pyrimidin-2-yl)oxy)methyl)pyrrolidin-1-yl)propoxy)-N-(4-(3-(2,4-dihydroxy-5-isopropylphenyl)-5-hydroxy-4H-1,2,4-triazol-4-yl)benzyl)propanamide]", "values": [{"measurement": "EC50", "setting": "[2]", "value": "> 1000", "unit": "nM"}, {"measurement": "IC50", "setting": "[1]", "value": "< 100", "unit": "nM"}]}, {"smiles": "C=CC(=O)N1CCN(c2nc(OC[C@H]3CCN(C(=O)C4CCN(Cc5ccc(-n6c(O)nnc6-c6cc(C(C)C)c(O)cc6O)cc5)CC4)C3)nc3c2CCN(c2cccc4cccc(Cl)c24)C3)C[C@@H]1CC#N", "note": "[Compound 184, 2-((S)-1-acryloyl-4-(7-(8-chloronaphthalen-1-yl)-2-(((S)-1-(1-(4-(3-(2,4-dihydroxy-5-isopropylphenyl)-5-hydroxy-4H-1,2,4-triazol-4-yl)benzyl)piperidine-4-carbonyl)pyrrolidin-3-yl)methoxy)-5,6,7,8-tetrahydropyrido[3,4-d]pyrimidin-4-yl)piperazin-2-yl)acetonitrile]", "values": [{"measurement": "EC50", "setting": "[2]", "value": "100 to 1000", "unit": "nM"}, {"measurement": "IC50", "setting": "[1]", "value": "100 to 1000", "unit": "nM"}]}, {"smiles": "C=CC(=O)N1CCN(c2nc(OC[C@@H]3CN(C(=O)C4CCN(Cc5ccc(-n6c(C(=O)NCC(F)(F)F)nnc6-c6cc(C(C)C)c(O)cc6O)cc5)CC4)CCN3C)nc3c2CCN(c2cccc4cccc(Cl)c24)C3)C[C@@H]1CC#N", "note": "[Compound 199, 4-(4-((4-((S)-3-(((4-((S)-4-acryloyl-3-(cyanomethyl)piperazin-1-yl)-7-(8-chloronaphthalen-1-yl)-5,6,7,8-tetrahydropyrido[3,4-d]pyrimidin-2-yl)oxy)methyl)-4-methylpiperazine-1-carbonyl)piperidin-1-yl)methyl)phenyl)-5-(2,4-dihydroxy-5-isopropylphenyl)-N-(2,2,2-trifluoroethyl)-4H-1,2,4-triazole-3-carboxamide]", "values": [{"measurement": "EC50", "setting": "[2]", "value": "100 to 1000", "unit": "nM"}, {"measurement": "IC50", "setting": "[1]", "value": "< 100", "unit": "nM"}]}, {"smiles": "C=CC(=O)N1CCN(c2nc(OCC3(CN4CCN(Cc5ccc(-n6c(C(=O)NCC)nnc6-c6cc(C(C)C)c(O)cc6O)cc5)CC4)CC3)nc3c2CCN(c2cccc(C)c2C)C3)C[C@@H]1CC#N", "note": "[Compound 291, 4-(4-{[4-({1-[({4-[(3S)-3-(cyanomethyl)-4-(prop-2-enoyl)piperazin-1-yl]-7-(2,3-dimethylphenyl)-5H,6H,8H-pyrido[3,4-d]pyrimidin-2-yl}oxy)methyl]cyclopropyl}-methyl)piperazin-1-yl]methyl}phenyl)-5-(2,4-dihydroxy-5-isopropylphenyl)-N-et-hyl-1,2,4-triazole-3-carboxamide]", "values": [{"measurement": "EC50", "setting": "[2]", "value": "< 100", "unit": "nM"}]}, {"smiles": "C=CC(=O)N1CCN(c2nc(OCC3(CN4CCN(Cc5ccc(-n6c(O)nnc6-c6cc(C(C)C)c(O)cc6O)cc5)CC4)CC3)nc3c2CCN(c2cccc(C)c2C)C3)C[C@@H]1CC#N", "note": "[Compound 292, 2-[(2S)-4-{2-[(1-{[4-({4-[3-(2,4-dihydroxy-5-isopropylphenyl)-5-hydroxy-1,2,4-triazol-4-yl]phenyl}methyl)piperazin-1-yl]methyl}cyclopropyl)methoxy]-7-(2,3-dimethylphenyl)-5H,6H,8H-pyrido[3,4-d]pyrimidin-4-yl}-1-(prop-2-enoyl)piperazin-2-yl]acetonitrile]", "values": [{"measurement": "EC50", "setting": "[2]", "value": "100 to 1000", "unit": "nM"}]}]}
